Consider 11 compounds from ChEMBL document CHEMBL1201862, “PubChem BioAssay data set” (2004).

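A five-concentration, 48-hour dose response in 96-well plates underlies each endpoint, interpolated linearly between surrounding concentrations. Abbreviation: GI50, concentration required for 50% inhibition of growth.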 The source made the active and inactive calls. No stated cut-off is given here; in the data, active = GI50 up to about 1.1 µM and inactive = higher. Where only a bound is given, the exact number is not on record here.

Test systems include A498; A549; CAKI-1; DU-145; HCT-15; HOP-62; HOP-92; Hs-578T; IGROV-1; M14; MCF7; MDA-N; OVCAR-8; RXF 393; SK-OV-3; SW-620; TK-10; UO-31; CCRF-CEM; NCI-H226.
Common to all, as to assay: NCI-60 cell line screen, 48 h

`C=CCCCC1(C)CCNC1=S` (stereo unspecified): the GI50 in the assay on A498 is > 100 µM (inactive); with A549 it was > 100 µM (inactive); in the assay on CAKI-1 it was > 100 µM (inactive); in the assay on DU-145, > 100 µM (inactive); in the assay on HCT-15 it was above 100 µM; in the assay with HOP-62 it was > 100 µM (inactive). The GI50 in the assay with HOP-92, with Hs-578T, in the assay with IGROV-1, in the assay with M14, in the assay on MCF7 and in the assay on MDA-N was > 100 µM (inactive) throughout. Further, the GI50 in the assay with OVCAR-8, with RXF 393, in the assay on SK-OV-3, in the assay with SW-620, in the assay with TK-10 and with UO-31 was > 100 µM (inactive) in each case.

Regarding `CC[N+]1(C)CCC(O)(/C=C/c2ccc(OC)cc2)C(C(=O)/C=C/c2ccc(OC)cc2)C1` (stereo unspecified), the GI50 in the assay on A498 is 16.7 µM (inactive); in the assay with A549, 23.3 µM (inactive); with CAKI-1, 1.88 µM (inactive); in the assay with CCRF-CEM, 0.548 µM (active); in the assay with DU-145, 14.2 µM (inactive); in the assay on HCT-15 it was 9.98 µM. The GI50 in the assay with HOP-62 is 19.3 µM (inactive); with HOP-92 it was 15.5 µM (inactive); in the assay with Hs-578T, 11.7 µM (inactive); in the assay on IGROV-1, 21.8 µM (inactive); in the assay on M14, 10.4 µM (inactive); in the assay on MCF7, 4.29 µM (inactive). Besides, the GI50 with MDA-N is 12.3 µM (inactive); in the assay on NCI-H226, 28 µM (inactive); in the assay with OVCAR-8, 23.3 µM (inactive); in the assay with RXF 393, 15.1 µM (inactive); in the assay on SK-OV-3 it was 19.1 µM (inactive); with SW-620, 2.7 µM (inactive). The GI50 with TK-10 is 2.96 µM (inactive); with UO-31, 12.6 µM (inactive).

Consider `NS(=O)(=O)c1ccc(NCc2nc3ccccc3[nH]2)cc1`, for which the GI50 with A498 was > 100 µM (inactive); with A549 it was > 100 µM (inactive); in the assay with CAKI-1, > 100 µM (inactive); with DU-145, > 100 µM (inactive); in the assay on HCT-15, above 100 µM; in the assay on HOP-62 it was > 100 µM (inactive). Further, the GI50 in the assay on HOP-92, with Hs-578T, with IGROV-1, in the assay with M14, with MCF7 and with MDA-N was > 100 µM (inactive) throughout. Also, the GI50 in the assay on NCI-H226, in the assay with OVCAR-8, with RXF 393, in the assay with SK-OV-3, with TK-10 and with UO-31 was > 100 µM (inactive) each time.

`N#CCN1CCCN(CC#N)CCN(CC#N)CCCN(CC#N)CC1`: the GI50 in the assay on A498 was > 100 µM (inactive); in the assay on A549, > 100 µM (inactive); in the assay on CAKI-1 it was > 100 µM (inactive); in the assay on CCRF-CEM, 89.9 µM (inactive); in the assay on DU-145, > 100 µM (inactive); in the assay with HOP-62 it was > 100 µM (inactive). The GI50 in the assay on HOP-92, in the assay with Hs-578T, in the assay with IGROV-1, with M14, in the assay on MCF7 and with MDA-N was > 100 µM (inactive) throughout. Besides, the GI50 in the assay on NCI-H226 is > 100 µM (inactive); in the assay with OVCAR-8 it was > 100 µM (inactive); in the assay with RXF 393, > 100 µM (inactive); with SK-OV-3 it was > 100 µM (inactive); in the assay on SW-620 it was 86.9 µM (inactive); with TK-10, > 100 µM (inactive). The GI50 with UO-31 was > 100 µM (inactive).

Consider `CCN(CC)C1C(=O)NC1C#Cc1ccccc1` (stereo unspecified), for which the GI50 was > 100 µM (inactive) in the assay on A498; 38.4 µM (inactive) in the assay on CAKI-1; 32 µM (inactive) in the assay on CCRF-CEM; > 100 µM (inactive) in the assay on DU-145; 96.6 µM with HCT-15; > 100 µM (inactive) in the assay with HOP-62. Further, the GI50 in the assay with HOP-92 was 18.9 µM (inactive); with Hs-578T, > 100 µM (inactive); in the assay on IGROV-1 it was 67.5 µM (inactive); in the assay on M14, > 100 µM (inactive); with MCF7 it was 49.2 µM (inactive); with MDA-N, 57.3 µM (inactive). For the same compound, the GI50 in the assay on NCI-H226 is > 100 µM (inactive); with OVCAR-8, > 100 µM (inactive); in the assay with RXF 393, > 100 µM (inactive); with SK-OV-3, > 100 µM (inactive); in the assay with SW-620, 69.5 µM (inactive); with TK-10, > 100 µM (inactive). The GI50 with UO-31 was > 100 µM (inactive).

For the compound `CC(=O)Oc1ccn2nc(C)c(Br)c2c1`, the GI50 was > 100 µM (inactive) in the assay on A498; > 70.5 µM (inactive) in the assay on A549; 29.9 µM (inactive) with CCRF-CEM; > 100 µM (inactive) in the assay with DU-145; 65.2 µM in the assay with HCT-15; > 67.1 µM (inactive) in the assay on HOP-62. For the same compound, the GI50 with HOP-92 was > 87.1 µM (inactive); with Hs-578T it was > 100 µM (inactive); in the assay with IGROV-1 it was > 100 µM (inactive); in the assay with M14, > 100 µM (inactive); with MCF7, 47.8 µM (inactive); in the assay with MDA-N, 49.3 µM (inactive). In addition, the GI50 in the assay on NCI-H226 is > 100 µM (inactive); in the assay with OVCAR-8 it was > 64.4 µM (inactive); in the assay with RXF 393, 65.3 µM (inactive); in the assay with SW-620, > 100 µM (inactive); in the assay with TK-10, > 100 µM (inactive).

On to `N#Cc1cc2c(n(C3OC(CO)C(O)C(O)C3O)c1=S)CCCCCC2` (stereo unspecified), for which the GI50 in the assay with A498 was > 100 µM (inactive); with A549, > 100 µM (inactive); with CAKI-1, > 100 µM (inactive); in the assay on CCRF-CEM, > 100 µM (inactive); in the assay on DU-145, > 100 µM (inactive); in the assay with HCT-15, above 100 µM. For the same compound, the GI50 in the assay on HOP-62, with HOP-92, with Hs-578T, in the assay on IGROV-1, in the assay on M14 and in the assay on MCF7 was > 100 µM (inactive) throughout. In addition, the GI50 with MDA-N, in the assay on NCI-H226, in the assay with OVCAR-8, in the assay with RXF 393, with SW-620 and with TK-10 was > 100 µM (inactive) throughout. For the same compound, the GI50 with UO-31 is > 100 µM (inactive).

On to `Sc1nn2c(COc3cc(Cl)c(OCc4nnc5sc(S)nn45)cc3Cl)nnc2s1`, for which the GI50 was > 100 µM (inactive) in the assay on A498; > 100 µM (inactive) with A549; > 100 µM (inactive) in the assay on CAKI-1; 78.3 µM (inactive) in the assay with DU-145; 33.1 µM in the assay on HCT-15; > 100 µM (inactive) with HOP-62. Besides, the GI50 in the assay on HOP-92 is 38.9 µM (inactive); in the assay on Hs-578T, > 100 µM (inactive); with IGROV-1 it was 41.6 µM (inactive); in the assay with M14, > 100 µM (inactive); in the assay on MCF7, 18.2 µM (inactive); in the assay with MDA-N, 33.6 µM (inactive). For the same compound, the GI50 in the assay with NCI-H226 was > 100 µM (inactive); with OVCAR-8 it was 88.5 µM (inactive); in the assay with RXF 393, 39.2 µM (inactive); in the assay with SK-OV-3 it was > 100 µM (inactive); with SW-620, 30.3 µM (inactive); with TK-10 it was > 100 µM (inactive). In addition, the GI50 in the assay on UO-31 is 31.3 µM (inactive).

For the compound `CCOC(=O)c1cc(C)nc2c1c(=O)n(-c1ccccc1)c(=O)n2CCCCN1CCN(c2ncccn2)CC1`, the GI50 in the assay on A498 was 20.8 µM (inactive); with A549, > 100 µM (inactive); with CAKI-1, 23.4 µM (inactive); in the assay with CCRF-CEM, 31.8 µM (inactive); in the assay with DU-145 it was > 100 µM (inactive); in the assay on HOP-62, > 100 µM (inactive). Moreover, the GI50 was 34.6 µM (inactive) with HOP-92; > 100 µM (inactive) in the assay with Hs-578T; > 100 µM (inactive) in the assay on IGROV-1; > 100 µM (inactive) with M14; > 100 µM (inactive) in the assay on MCF7; > 100 µM (inactive) in the assay with MDA-N. The GI50 with NCI-H226, in the assay with OVCAR-8, in the assay on RXF 393, in the assay with SK-OV-3, in the assay on SW-620 and in the assay with TK-10 was > 100 µM (inactive) in each case. Besides, the GI50 in the assay with UO-31 was 38.5 µM (inactive).

Consider `Clc1ccc(-c2cc3nc4ccccc4nc3o2)cc1`, for which the GI50 in the assay with A498 was > 100 µM (inactive); with A549 it was > 100 µM (inactive); in the assay on CAKI-1, > 100 µM (inactive); in the assay on CCRF-CEM, > 100 µM (inactive); in the assay on DU-145, > 100 µM (inactive); with HCT-15 it was above 100 µM. Further, the GI50 was 47.2 µM (inactive) with HOP-92; 15.7 µM (inactive) with Hs-578T; 62.8 µM (inactive) in the assay with IGROV-1; > 100 µM (inactive) in the assay with M14; 64.4 µM (inactive) in the assay on MCF7; > 100 µM (inactive) with MDA-N. Besides, the GI50 is > 100 µM (inactive) in the assay on NCI-H226; 32.6 µM (inactive) in the assay with OVCAR-8; 32.5 µM (inactive) in the assay with RXF 393; 59.4 µM (inactive) in the assay with SK-OV-3; > 100 µM (inactive) in the assay with SW-620; 32.7 µM (inactive) in the assay on TK-10. Also, in the assay on UO-31, the GI50 is > 100 µM (inactive).

For the compound `COc1cc2c3c(c1O)C1(C=CC(=O)C=C1)CC3N(C)CC2` (stereo unspecified) [GLAZIOVINE], the GI50 was 17.7 µM (inactive) in the assay on A498; 22.4 µM (inactive) with A549; 7.29 µM (inactive) in the assay on CAKI-1; 2.31 µM (inactive) in the assay on CCRF-CEM; 13.2 µM (inactive) with DU-145; 5.96 µM in the assay on HCT-15. The GI50 in the assay on HOP-62 is 13.1 µM (inactive); in the assay on HOP-92 it was 11.6 µM (inactive); with Hs-578T, 14.4 µM (inactive); with IGROV-1 it was 6.22 µM (inactive); in the assay on M14, 12.1 µM (inactive); in the assay with MCF7 it was 5.14 µM (inactive). Besides, the GI50 in the assay on MDA-N is 10.7 µM (inactive); with NCI-H226 it was 22 µM (inactive); with OVCAR-8 it was 10.4 µM (inactive); in the assay with RXF 393, 6.14 µM (inactive); with SK-OV-3, 31.3 µM (inactive); in the assay with SW-620 it was 5.89 µM (inactive). Moreover, the GI50 in the assay on TK-10 was 21.6 µM (inactive).
